Consider ten molecules from article PMC6154393 (Bioorganic & medicinal chemistry, 2018).

Data set [1] is described as follows: in vitro. The note with it: monkey.
The subject of another data set is Mtb Erdman strain. The data set is described as follows: BALB/c acute infection model, oral administration. The format is in vivo, Mycobacterium tuberculosis.
Data set [2] is described as follows: in vitro. Conditions: human, Caco-2.
The next data set in a line: in vivo. The note with it: BALB/c, mouse, po, 30 mg/kg.
For data set [3] the following is noted: mouse, in vivo, iv, 10 mg/kg.
Data set [4] deals with intracellular Mtb CDC1551-tdTomato in macrophages (J774A.1 cells). The data set is described as follows: Killing effect against intracellular Mtb in J774A.1 macrophages. Conditions: at 2xMIC; for Killing of intracellular Mtb (in words): J774A.1 macrophages. The format is cell-based, Mycobacterium tuberculosis.
In data set [5] the test system is non-replicating Mtb (H37Rv). Briefly: microbe, parasite or virus in culture. The format is cell-based. Conditions: Mycobacterium tuberculosis, 240 h, read-out: MIC (LORA).
The next data set relates to Mycobacterium smegmatis. The note with it: cited from earlier work.

Converted amounts (≈) assume the structure as drawn.

A word on the IC50: it is the concentration that inhibits the measured activity by half. `CC[C@@H](CO)NCCN[C@@H](CC)CO` [Ethambutol (EMB), Ethambutol] gave an IC50 at 72 h in “in vitro [1]” greater than 200 µg/mL.

For the molecule `NNC(=O)c1ccncc1` [Isoniazid (INH), Isoniazid, reference compound], the Log reduction result in the data set with Mtb Erdman strain (2.5 mg/kg, 3 weeks, lung burden relative to untreated control) was “about 4 Log10”. Further, in the data set “in vitro [1]”, the IC50 at 72 h is greater than 200 µg/mL.

`CC(=O)NC[C@H]1CN(c2ccc(N3CCOCC3)c(F)c2)C(=O)O1` [Linezolid] yielded an IC50 at 72 h in “in vitro [1]” greater than 200 µg/mL.

As usually defined, the Papp A→B is the apparent permeability from the apical to the basolateral side of a cell layer. One may read the efflux ratio as a quotient of directional permeabilities that is used to spot active efflux. Turning to `CNC(=C[N+](=O)[O-])NCCSCc1ccc(CN(C)C)o1` [Ranitidine], in “in vitro [2]”, the apparent permeability from apical to basolateral (Papp A→B) at 2 h, 10 µM amounted to 0.237 ×10⁻⁶ cm/s and the efflux ratio at 2 h, 10 µM came to 5.

`CO[C@H]1/C=C/O[C@@]2(C)Oc3c(C)c(O)c4c(O)c(c(/C=N/N5CCN(C)CC5)c(O)c4c3C2=O)NC(=O)/C(C)=C\C=C\[C@H](C)[C@H](O)[C@@H](C)[C@@H](O)[C@@H](C)[C@H](OC(C)=O)[C@@H]1C` [Rifampicin (RIF), Rifampicin] had a half-inhibitory concentration (IC50) at 72 h in “in vitro [1]” greater than 200 µg/mL.

What is called Tmax is the time from dosing to the highest level. For `CC[C@]1(C)C[C@@H](OC(=O)CSC(C)(C)CNC(=O)[C@H](N)CC(C)C)[C@]2(C)[C@H](C)CC[C@]3(CC[C@@H](O)[C@H]32)[C@@H](C)[C@@H]1O` [UT-800 (1)], the time to peak (Tmax) in the data set “in vivo” was no more than 1 h. For the same molecule, the AUC0-24h in data set [3] is 66,281 ng•h/g. In addition, the “Time to kill Mtb in infected macrophages” value in data set [4] (J774A.1 cells, Mtb CDC1551-tdTomato) is given as no more than 72 h. Also, the “Killing of intracellular Mtb (in words)” value is “kills intracellular Mtb faster than rifampicin” in data set [4]; “killed intracellular Mtb more effectively than INH and RIF” in data set [4] (listed as 1). The Log10 cfu/mouse with Mtb Erdman strain (100 mg/kg, oral, 3 weeks, lungs, BALB/c mice, mean of 5) was 8.1E+05; with Mtb Erdman strain (200 mg/kg, oral, 3 weeks, lungs, BALB/c mice, mean of 5) it was 4.4E+05; in the data set on Mtb Erdman strain (in vivo), 1.2E+06. For the same molecule, the Viable organisms persisted in the data set on Mtb Erdman strain (200 mg/kg, 3 weeks) was 5.6-5.7 log10 cfu/mouse. Further, in data set [5], the MIC was in the range of 1.04 to 3.46 µg/mL (≈ 1.78 to 5.94 µM).

For the molecule `C=C[C@]1(C)C[C@@H](OC(=O)CSC(C)(C)CNC(=O)[C@H](N)CC(C)C)[C@]2(C)[C@H](C)CC[C@]3(CCC(=O)[C@H]32)[C@@H](C)[C@@H]1O` [UT-810 (2)], the MIC in data set [5] lay within 1.04 to 3.46 µg/mL (≈ 1.8 to 5.98 µM).

In the case of `CC[C@]1(C)C[C@@H](OC(=O)CSC(C)(C)CNC(=O)[C@H](N)CC(C)C)[C@]2(C)[C@H](C)CC[C@]3(CCC(=O)[C@H]32)[C@@H](C)[C@@H]1O` [UT-815 (3)], the MIC in data set [5] is 1.04 to 3.46 µg/mL (≈ 1.79 to 5.96 µM).

Consider `C=C[C@]1(C)C[C@@H](OC(=O)CSC(C)(C)CNC(=O)[C@H](N)CC(C)C)[C@]2(C)[C@H](C)CC[C@]3(CC[C@@H](O)[C@H]32)[C@@H](C)[C@@H]1O` [UT-820 (4)], for which the MIC in data set [5] was in the range of 1.04 to 3.46 µg/mL (≈ 1.79 to 5.96 µM).

`C=C[C@]1(C)C[C@@H](OC(=O)CSC(C)(C)CNC(=O)[C@H](N)C(C)C)[C@]2(C)[C@H](C)CC[C@]3(CCC(=O)[C@H]32)[C@@H](C)[C@@H]1O` [Valnemulin]: in the data set on Mycobacterium smegmatis, the MIC is 8 to 16 µg/mL. In “in vitro [1]”, this molecule came in with a half-inhibitory concentration (IC50) at 72 h of 15 µg/mL (≈ 26.6 µM).
